Measured values reported in patent publication US10123993B2, “Cyclic ureas as inhibitors of rock” (BRISTOL-MYERS SQUIBB COMPANY, priority 2015, dated 2018).

These molecules were tested against ROCK2 (Homo sapiens, UniProt O75116) (assay: ROCK2 kinase inhibition assay (Caliper LABCHIP, FITC peptide substrate)). Settings: 5 μM ATP, 1.5 μM peptide substrate; value ranges.
Type: biochemical
Procedure: The effectiveness of compounds of the present invention as ROCK inhibitors can be determined in a 30 μL assay containing 20 mM HEPES, pH 7.5, 20 mM MgCl2, 0.015% Brij-35, 4 mM DTT, 5 μM ATP and 1.5 μM peptide substrate (FITC-AHA-AKRRRLSSLRA-OH). Compounds were dissolved in DMSO so that the final concentration of DMSO was <2%, and the reaction was initiated with Rho kinase variants. After incubation, the reaction was terminated by the addition of EDTA and the phosphorylated and non-phosphorylated peptides separated using a LABCHIP® 3000 Reader (Caliper Life Sciences). […] Compounds were tested in dose-response format, and the inhibition of kinase activity was calculated at each concentration of compound. The inhibition data were fit using a curve-fitting program to determine the IC50; i.e., the concentration of compound required to inhibit 50% of kinase activity.
Representative Examples were tested in the ROCK2 assay described above and found having ROCK inhibitory activity.

Chain of ROCK2 (O75116 whole entry, species assumed): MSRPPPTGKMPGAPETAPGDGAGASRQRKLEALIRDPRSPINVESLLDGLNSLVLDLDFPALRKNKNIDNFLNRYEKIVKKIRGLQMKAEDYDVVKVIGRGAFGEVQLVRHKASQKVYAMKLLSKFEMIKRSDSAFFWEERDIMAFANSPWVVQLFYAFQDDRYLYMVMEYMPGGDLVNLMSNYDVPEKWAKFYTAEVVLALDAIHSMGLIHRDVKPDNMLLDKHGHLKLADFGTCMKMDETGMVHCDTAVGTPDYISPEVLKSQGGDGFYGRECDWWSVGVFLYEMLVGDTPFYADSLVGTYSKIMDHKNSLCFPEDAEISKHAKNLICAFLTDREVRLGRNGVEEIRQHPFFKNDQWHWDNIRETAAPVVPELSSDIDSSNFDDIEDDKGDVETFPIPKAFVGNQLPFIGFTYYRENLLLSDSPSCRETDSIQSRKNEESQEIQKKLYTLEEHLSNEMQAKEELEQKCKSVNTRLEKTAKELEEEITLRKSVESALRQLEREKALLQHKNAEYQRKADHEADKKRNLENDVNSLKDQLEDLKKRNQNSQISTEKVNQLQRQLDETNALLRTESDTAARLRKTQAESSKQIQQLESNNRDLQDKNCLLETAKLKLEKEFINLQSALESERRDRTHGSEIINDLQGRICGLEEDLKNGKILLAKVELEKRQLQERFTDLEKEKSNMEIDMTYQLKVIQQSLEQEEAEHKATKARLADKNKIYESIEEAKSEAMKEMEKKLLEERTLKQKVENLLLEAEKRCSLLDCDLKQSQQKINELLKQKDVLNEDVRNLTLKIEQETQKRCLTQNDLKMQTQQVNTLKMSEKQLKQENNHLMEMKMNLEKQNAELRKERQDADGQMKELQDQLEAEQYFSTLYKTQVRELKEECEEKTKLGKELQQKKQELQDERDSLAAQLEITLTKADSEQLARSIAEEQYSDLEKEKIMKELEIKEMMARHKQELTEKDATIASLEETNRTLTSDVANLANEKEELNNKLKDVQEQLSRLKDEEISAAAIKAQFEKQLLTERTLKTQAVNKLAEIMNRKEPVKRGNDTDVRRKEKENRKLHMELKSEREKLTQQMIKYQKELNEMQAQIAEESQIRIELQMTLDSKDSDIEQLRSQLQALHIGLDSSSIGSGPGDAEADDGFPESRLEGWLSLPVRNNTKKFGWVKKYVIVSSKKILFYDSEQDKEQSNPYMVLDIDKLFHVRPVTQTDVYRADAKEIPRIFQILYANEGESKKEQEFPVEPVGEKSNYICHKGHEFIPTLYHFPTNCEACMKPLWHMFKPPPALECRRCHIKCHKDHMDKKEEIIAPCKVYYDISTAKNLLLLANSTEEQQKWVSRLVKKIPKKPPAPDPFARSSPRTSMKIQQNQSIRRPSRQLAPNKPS

Structure (SMILES)	IC50 [nM]
COc1cccc(C(C)n2ccn(-c3ccc(-c4cn[nH]c4)c(C)n3)c2=O)c1 (single isomer, unassigned) [Example 189, 1-(1-(3-methoxy-phenyl)-ethyl)-3-(6-methyl-5-(1H-pyrazol-4-yl)pyridin-2-yl)-1H-imidazol-2(3H)-one]	20.1 to 200
COc1cccc(C(C)N2CCN(c3ccc(-c4cn[nH]c4)c(C)c3)C2=O)c1 (single isomer, unassigned) [Example 192, 1-(1-(3-methoxy-phenyl)-ethyl)-3-(3-methyl-4-(1H-pyrazol-4-yl)phenyl) imidazolidin-2-one]	200 to 2000
COc1cccc(C(C)N2CCN(c3ccc(-c4cn[nH]c4)c(C)c3)C2=O)c1 (single isomer, unassigned) [Example 193, 1-(1-(3-methoxy-phenyl)-ethyl)-3-(3-methyl-4-(1H-pyrazol-4-yl)phenyl) imidazolidin-2-one]	2.1 to 20
CC(c1cccc(OCC2CC2)c1)N1CCN(c2ccc(-c3cn[nH]c3)cc2)C1=O (single isomer, unassigned) [Example 195, 1-(4-(1H-pyrazol-4-yl)-phenyl)-3-(1-(3-(cyclo-propyl-methoxy)-phenyl)-ethyl)-imidazolidin-2-one]	200 to 2000
CC(c1cccc(OCC2CC2)c1)N1CCN(c2ccc(-c3cn[nH]c3)cc2)C1=O (single isomer, unassigned) [Example 196, 1-(4-(1H-pyrazol-4-yl)-phenyl)-3-(1-(3-(cyclo-propyl-methoxy)-phenyl)-ethyl)-imidazolidin-2-one]	2.1 to 20
COc1cc(F)cc(C(C)N2CCN(c3ccc(-c4cn[nH]c4)cc3)C2=O)c1 (single isomer, unassigned) [Example 197, 1-(4-(1H-pyrazol-4-yl)-phenyl)-3-(1-(3-fluoro-5-methoxy-phenyl)ethyl) imidazolidin-2-one]	< 2
COc1cc(F)cc(C(C)N2CCN(c3ccc(-c4cn[nH]c4)cc3)C2=O)c1 (single isomer, unassigned) [Example 198, 1-(4-(1H-pyrazol-4-yl)-phenyl)-3-(1-(3-fluoro-5-methoxy-phenyl)ethyl) imidazolidin-2-one]	200 to 2000
Cc1nc(N2CCN(C(C)c3cccc(OCC4CC4)c3)C2=O)ccc1-c1cn[nH]c1 (single isomer, unassigned) [Example 204, 1-(1-(3-(cyclopropyl-methoxy)-phenyl)-ethyl)-3-(6-methyl-5-(1H-pyrazol-4-yl)pyridin-2-yl)-imidazolidin-2-one]	20.1 to 200
COc1cc(F)cc(C(C)N2CCN(c3ccc(-c4cn[nH]c4)c(C)n3)C2=O)c1 (single isomer, unassigned) [Example 206, 1-(1-(3-fluoro-5-methoxy-phenyl)-ethyl)-3-(6-methyl-5-(1H-pyrazol-4-yl)pyridin-2-yl)-imidazolidin-2-one]	< 2
COc1cc(F)cc(C(C)N2CCN(c3ccc(-c4cn[nH]c4)c(C)n3)C2=O)c1 (single isomer, unassigned) [Example 207, 1-(1-(3-fluoro-5-methoxyphenyl)ethyl)-3-(6-methyl-5-(1H-pyrazol-4-yl)pyridin-2-yl)imidazolidin-2-one]	200 to 2000
COc1cc(C(C)N2CCN(c3ccc(-c4cn[nH]c4)c(C)n3)C2=O)ccc1F (single isomer, unassigned) [Example 208, 1-(1-(4-fluoro-3-methoxyphenyl)ethyl)-3-(6-methyl-5-(1H-pyrazol-4-yl)pyridin-2-yl)imidazolidin-2-one]	200 to 2000
COc1cc(C(C)N2CCN(c3ccc(-c4cn[nH]c4)c(C)n3)C2=O)ccc1F (single isomer, unassigned) [Example 209, 1-(1-(4-fluoro-3-methoxyphenyl)ethyl)-3-(6-methyl-5-(1H-pyrazol-4-yl)pyridin-2-yl)imidazolidin-2-one]	2.1 to 20
COc1nc(N2CCN(C(C)c3cccc(OCC4CC4)c3)C2=O)ccc1-c1cn[nH]c1 (single isomer, unassigned) [Example 212, 1-(1-(3-(cyclopropylmethoxy)phenyl)ethyl)-3-(6-methoxy-5-(1H-pyrazol-4-yl)pyridin-2-yl)imidazolidin-2-one]	2.1 to 20
COc1nc(N2CCN(C(C)c3cccc(OCC4CC4)c3)C2=O)ccc1-c1cn[nH]c1 (single isomer, unassigned) [Example 213, 1-(1-(3-(cyclopropylmethoxy)phenyl)ethyl)-3-(6-methoxy-5-(1H-pyrazol-4-yl)pyridin-2-yl)imidazolidin-2-one]	200 to 2000
COc1cccc(C(C)N2CCN(c3ccc(-c4cn[nH]c4)c(OC)n3)C2=O)c1 (single isomer, unassigned) [Example 219, 1-(6-methoxy-5-(1H-pyrazol-4-yl)pyridin-2-yl)-3-(1-(3-methoxyphenyl)ethyl)imidazolidin-2-one]	< 2
COc1cccc(C(C)N2CCN(c3ccc(-c4cn[nH]c4)c(OC)n3)C2=O)c1 (single isomer, unassigned) [Example 220, 1-(6-methoxy-5-(1H-pyrazol-4-yl)pyridin-2-yl)-3-(1-(3-methoxyphenyl)ethyl)imidazolidin-2-one]	20.1 to 200
COc1cc(F)cc(C(C)N2CCN(c3ccc(-c4cn[nH]c4)c(OC)n3)C2=O)c1 (single isomer, unassigned) [Example 228, 1-(1-(3-fluoro-5-methoxyphenyl)ethyl)-3-(6-methoxy-5-(1H-pyrazol-4-yl)pyridin-2-yl)imidazolidin-2-one]	< 2
COc1cc(F)cc(C(C)N2CCN(c3ccc(-c4cn[nH]c4)c(OC)n3)C2=O)c1 (single isomer, unassigned) [Example 229, 1-(1-(3-fluoro-5-methoxyphenyl)ethyl)-3-(6-methoxy-5-(1H-pyrazol-4-yl)pyridin-2-yl)imidazolidin-2-one]	2.1 to 20
COc1cc(C(C)N2CCN(c3ccc(-c4cn[nH]c4)c(OC)n3)C2=O)ccc1F (single isomer, unassigned) [Example 230, 1-(1-(4-fluoro-3-methoxyphenyl)ethyl)-3-(6-methoxy-5-(1H-pyrazol-4-yl)pyridin-2-yl)imidazolidin-2-one]	< 2
COc1cc(C(C)N2CCN(c3ccc(-c4cn[nH]c4)c(OC)n3)C2=O)ccc1F (single isomer, unassigned) [Example 231, 1-(1-(4-fluoro-3-methoxyphenyl)ethyl)-3-(6-methoxy-5-(1H-pyrazol-4-yl)pyridin-2-yl)imidazolidin-2-one]	20.1 to 200
CCc1nc(N2CCN(C(C)c3cccc(OCC4CC4)c3)C2=O)ccc1-c1cn[nH]c1 (single isomer, unassigned) [Example 265, 1-(1-(3-(cyclopropylmethoxy)phenyl)ethyl)-3-(6-ethyl-5-(1H-pyrazol-4-yl)pyridin-2-yl)imidazolidin-2-one]	20.1 to 200
CCOc1cccc(C(C)N2CCN(c3ccc(-c4cn[nH]c4)c(CC)n3)C2=O)c1 (single isomer, unassigned) [Example 266, 1-(1-(3-ethoxyphenyl)ethyl)-3-(6-ethyl-5-(1H-pyrazol-4-yl)pyridin-2-yl)imidazolidin-2-one]	2.1 to 20
CCOc1cccc(C(C)N2CCN(c3ccc(-c4cn[nH]c4)c(CC)n3)C2=O)c1 (single isomer, unassigned) [Example 267, 1-(1-(3-ethoxyphenyl)ethyl)-3-(6-ethyl-5-(1H-pyrazol-4-yl)pyridin-2-yl)imidazolidin-2-one]	200 to 2000
CCc1nc(N2CCN(C(C)c3cc(F)cc(OC)c3)C2=O)ccc1-c1cn[nH]c1 (single isomer, unassigned) [Example 268, 1-(6-ethyl-5-(1H-pyrazol-4-yl)pyridin-2-yl)-3-(1-(3-fluoro-5-methoxyphenyl)ethyl)imidazolidin-2-one]	< 2
CCc1nc(N2CCN(C(C)c3cc(F)cc(OC)c3)C2=O)ccc1-c1cn[nH]c1 (single isomer, unassigned) [Example 269, 1-(6-ethyl-5-(1H-pyrazol-4-yl)pyridin-2-yl)-3-(1-(3-fluoro-5-methoxyphenyl)ethyl)imidazolidin-2-one]	20.1 to 200
CCc1nc(N2CCN(C(C)c3ccc(F)c(OC)c3)C2=O)ccc1-c1cn[nH]c1 (single isomer, unassigned) [Example 270, 1-(6-ethyl-5-(1H-pyrazol-4-yl)pyridin-2-yl)-3-(1-(4-fluoro-3-methoxyphenyl)ethyl)imidazolidin-2-one]	2.1 to 20
CCc1nc(N2CCN(C(C)c3ccc(F)c(OC)c3)C2=O)ccc1-c1cn[nH]c1 (single isomer, unassigned) [Example 271, 1-(6-ethyl-5-(1H-pyrazol-4-yl)pyridin-2-yl)-3-(1-(4-fluoro-3-methoxyphenyl)ethyl)imidazolidin-2-one]	200 to 2000
COc1cccc(C(C)(CO)N2CCN(c3ccc(-c4cn[nH]c4)cc3)C2=O)c1 (single isomer, unassigned) [Example 286, 1-(4-(1H-Pyrazol-4-yl)phenyl)-3-(1-hydroxy-2-(3-methoxyphenyl)propan-2-yl)imidazolidin-2-one]	20.1 to 200
COc1cccc(C(C)(CO)N2CCN(c3ccc(-c4cn[nH]c4)cc3)C2=O)c1 (single isomer, unassigned) [Example 287, 1-(4-(1H-Pyrazol-4-yl)phenyl)-3-(1-hydroxy-2-(3-methoxyphenyl)propan-2-yl)imidazolidin-2-one]	20.1 to 200
COc1cccc(C(C(=O)O)N2CCN(c3ccc(-c4cn[nH]c4)cc3)C2=O)c1 (single isomer, unassigned) [Example 288, 2-(3-(4-(1H-Pyrazol-4-yl)phenyl)-2-oxoimidazolidin-1-yl)-2-(3-methoxyphenyl)acetic Acid]	200 to 2000
